pEC50: −log10 of the molar value.

The term pEC50 denotes the EC50 on a negative log10 scale, so that one unit is a factor of ten. Low values mean a high EC50, high ones a low EC50.

The target of the first assay is Heat shock protein HSP 90-beta (Homo sapiens, UniProt P08238). The experiment in a line: Her-2 Degradation Assay.
Chain of Heat shock protein HSP 90-beta (P08238 whole entry): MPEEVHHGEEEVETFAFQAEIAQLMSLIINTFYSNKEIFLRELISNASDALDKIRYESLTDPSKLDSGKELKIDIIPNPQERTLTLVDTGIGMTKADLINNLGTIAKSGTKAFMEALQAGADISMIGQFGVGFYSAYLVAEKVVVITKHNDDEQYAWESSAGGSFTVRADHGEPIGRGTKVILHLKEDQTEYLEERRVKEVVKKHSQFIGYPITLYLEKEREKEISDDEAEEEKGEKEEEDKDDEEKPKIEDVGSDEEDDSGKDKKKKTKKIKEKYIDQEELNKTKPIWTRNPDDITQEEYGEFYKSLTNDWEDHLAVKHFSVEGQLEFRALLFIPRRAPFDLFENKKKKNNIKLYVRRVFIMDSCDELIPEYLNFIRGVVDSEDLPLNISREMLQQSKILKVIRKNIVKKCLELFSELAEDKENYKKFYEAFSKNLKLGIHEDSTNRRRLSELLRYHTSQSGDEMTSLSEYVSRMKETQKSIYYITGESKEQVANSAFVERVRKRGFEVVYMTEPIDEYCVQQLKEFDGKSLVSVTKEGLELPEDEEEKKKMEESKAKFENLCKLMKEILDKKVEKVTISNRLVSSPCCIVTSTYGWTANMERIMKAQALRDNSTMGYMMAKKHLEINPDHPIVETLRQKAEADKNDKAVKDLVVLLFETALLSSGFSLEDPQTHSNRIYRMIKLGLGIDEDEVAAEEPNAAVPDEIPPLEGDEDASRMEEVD
Details: not given
As to the method:
A fluorescence histogram was generated, and the mean fluorescence intensity (MFI) of each sample was determined using Cellquest software.
In the case of `CC(C)(C)CNCCn1c(Sc2nc3cccc(Cl)c3s2)nc2c(N)ncnc21`, the pEC50 is 7.46.
Still for that read-out and setting: then `CC(=O)OCCCn1c(Sc2nc3cncc(Cl)c3s2)nc2c(N)ncnc21` [3-[6-amino-8-({7-chloropyrido[3,4-d][1,3]thiazol-2-yl}sulfanyl)-9H-purin-9-yl]propyl acetate], with 6.77.
The same measure, in the same setting: the value for `CCCCn1c(Sc2nc3cncc(Br)c3s2)nc2c(N)ncnc21` [8-({7-bromopyrido[3,4-d][1,3]thiazol-2-yl}sulfanyl)-9-butyl-9H-purin-6-amine] was 6.40; that for `Nc1ncnc2c1nc(Sc1nc3cccc(Cl)c3s1)n2CCNC1CC1` [8-[(7-chloro-1,3-benzothiazol-2-yl)sulfanyl]-9-[2-(cyclopropylamino)ethyl]-9H-purin-6-amine] was 6.96.
`CC(C)NCCCn1c(Sc2nc3cccc(Cl)c3s2)nc2c(N)ncnc21` [8-[(7-chloro-1,3-benzothiazol-2-yl)sulfanyl]-9-[3-(propan-2-ylamino)propyl]-9H-purin-6-amine] showed a pEC50 of 6.77.
The same measure, in the same setting: then `CC(C)(C)NCCn1c(Sc2nc3cccc(Cl)c3s2)nc2c(N)ncnc21` [9-[2-(tert-butylamino)ethyl]-8-[(7-chloro-1,3-benzothiazol-2-yl)sulfanyl]-9H-purin-6-amine], with 6.85; and `CC(C)(C)NCCCn1c(Sc2nc3cccc(Cl)c3s2)nc2c(N)ncnc21` [9-[3-(tert-butylamino)propyl]-8-[(7-chloro-1,3-benzothiazol-2-yl)sulfanyl]-9H-purin-6-amine], with 6.82; and `CCCCn1c(Sc2nc3cncc(Cl)c3s2)nc2c(N)ncnc21` [9-butyl-8-({7-chloropyrido[3,4-d][1,3]thiazol-2-yl}sulfanyl)-9H-purin-6-amine], with 6.55.

The same assay, now with this note: pH 7.2; 37 °C.
`CCCCn1c(Sc2nc3cccc(Cl)c3s2)nc2c(N)ncnc21` gave a negative logarithm of the EC50 (pEC50) of 6.74.
Same read-out and setting: then `Nc1ncnc2c1nc(Sc1nc3cccc(Cl)c3s1)n2CCO` [2-{6-amino-8-[(7-chloro-1,3-benzothiazol-2-yl)sulfanyl]-9H-purin-9-yl}ethan-1-ol], with 6.52; and `CC(=O)OCCn1c(Sc2nc3cccc(Cl)c3s2)nc2c(N)ncnc21` [2-{6-amino-8-[(7-chloro-1,3-benzothiazol-2-yl)sulfanyl]-9H-purin-9-yl}ethyl acetate], with 6.82; and `Nc1ncnc2c1nc(Sc1nc3cccc(Cl)c3s1)n2CCCO` [3-{6-amino-8-[(7-chloro-1,3-benzothiazol-2-yl)sulfanyl]-9H-purin-9-yl}propan-1-ol], with 6.82.
`CC(=O)OCCCn1c(Sc2nc3cccc(Cl)c3s2)nc2c(N)ncnc21` [3-{6-amino-8-[(7-chloro-1,3-benzothiazol-2-yl)sulfanyl]-9H-purin-9-yl}propyl acetate] had a pEC50 of 7.05.
Still for that read-out and setting: then `Nc1ncnc2c1nc(Sc1nc3cccc(Cl)c3s1)n2CCCCO` [4-{6-amino-8-[(7-chloro-1,3-benzothiazol-2-yl)sulfanyl]-9H-purin-9-yl}butan-1-ol], with 6.82.
Still for that read-out and setting: the value for `CC(=O)OCCCCn1c(Sc2nc3cccc(Cl)c3s2)nc2c(N)ncnc21` [4-{6-amino-8-[(7-chloro-1,3-benzothiazol-2-yl)sulfanyl]-9H-purin-9-yl}butyl acetate] was 6.89; that for `N#CCCCCn1c(Sc2nc3cccc(Cl)c3s2)nc2c(N)ncnc21` [5-{6-amino-8-[(7-chloro-1,3-benzothiazol-2-yl)sulfanyl]-9H-purin-9-yl}pentanenitrile] was 6.96; that for `CCCCn1c(Sc2nc3ccccc3s2)nc2c(N)ncnc21` [8-(1,3-benzothiazol-2-ylsulfanyl)-9-butyl-9H-purin-6-amine] was 5.30.
On the same count and under the same terms, then `CCCCn1c(Sc2nc3cccc(Br)c3s2)nc2c(N)ncnc21` [8-[(7-bromo-1,3-benzothiazol-2-yl)sulfanyl]-9-butyl-9H-purin-6-amine], with 6.48; and `Nc1ncnc2c1nc(Sc1nc3cccc(Cl)c3s1)n2CCN1CCOCC1` [8-[(7-chloro-1,3-benzothiazol-2-yl)sulfanyl]-9-[2-(morpholin-4-yl)ethyl]-9H-purin-6-amine], with 6.60; and `CCn1c(Sc2nc3cccc(Cl)c3s2)nc2c(N)ncnc21` [8-[(7-chloro-1,3-benzothiazol-2-yl)sulfanyl]-9-ethyl-9H-purin-6-amine], with 6.70.
`CCCCCn1c(Sc2nc3cccc(Cl)c3s2)nc2c(N)ncnc21` [8-[(7-chloro-1,3-benzothiazol-2-yl)sulfanyl]-9-pentyl-9H-purin-6-amine] gave a pEC50 of 6.15.
`CCCn1c(Sc2nc3cccc(Cl)c3s2)nc2c(N)ncnc21` [8-[(7-chloro-1,3-benzothiazol-2-yl)sulfanyl]-9-propyl-9H-purin-6-amine] gave a pEC50 of 6.60.
Still for that read-out and setting: then `CCCCn1c(Sc2nc3c(Cl)cccc3s2)nc2c(N)ncnc21` [9-butyl-8-[(4-chloro-1,3-benzothiazol-2-yl)sulfanyl]-9H-purin-6-amine], with 4.82; and `CCCCn1c(Sc2nc3ccc(Cl)c(Cl)c3s2)nc2c(N)ncnc21` [9-butyl-8-[(6,7-dichloro-1,3-benzothiazol-2-yl)sulfanyl]-9H-purin-6-amine], with 4.60; and `CCCCn1c(Sc2nc3ccc(Cl)cc3s2)nc2c(N)ncnc21` [9-butyl-8-[(6-chloro-1,3-benzothiazol-2-yl)sulfanyl]-9H-purin-6-amine], with 5.15.
In turn, `CCCCn1c(Sc2nc3cccc(OCC)c3s2)nc2c(N)ncnc21` [9-butyl-8-[(7-ethoxy-1,3-benzothiazol-2-yl)sulfanyl]-9H-purin-6-amine] showed a pEC50 of 4.00.
Still for that read-out and setting: then `CCCCn1c(Sc2nc3cccc(F)c3s2)nc2c(N)ncnc21` [9-butyl-8-[(7-fluoro-1,3-benzothiazol-2-yl)sulfanyl]-9H-purin-6-amine], with 6.70; and `CCCCn1c(Sc2nc3cccc(OC)c3s2)nc2c(N)ncnc21` [9-butyl-8-[(7-methoxy-1,3-benzothiazol-2-yl)sulfanyl]-9H-purin-6-amine], with 6.72.
Same read-out and setting: the value for `CCCCn1c(Sc2nc3cccc(C)c3s2)nc2c(N)ncnc21` [9-butyl-8-[(7-methyl-1,3-benzothiazol-2-yl)sulfanyl]-9H-purin-6-amine] was 6.52.
